According to article PMC4513902, “Evaluation of a new radiolabeled bombesin derivative with ^99mTc as potential targeted tumor imaging agent” (Journal of Radioanalytical and Nuclear Chemistry, 2013):
Read-outs that look alike come from different tables or passages of the source.

Tests used:
[1] = system: human GRP receptor cell line PC-3; details: after 4 h in PC-3; previous compound; cited from earlier work
Source text: Compare with our pervious compound [^99mTc-tricine-HYNIC^0-D-Tyr^6-D-Trp^8]

[2] = system: human GRP receptor cell line PC-3; experiment: Internalization assay in PC-3 cells; assay type: cell-based; details: 1 million cells per well, about 150 kBq (2.5 pmol total peptide) per well, acid resistant fraction, gamma counter
Experimental: The human androgen-independent prostate carcinoma cell line PC-3 was obtained from National Cell Bank of Iran (NCBI) affiliated to Pasteur Institute of Iran. The cells were grown in DMEM supplemented with 10 % (v/v) fetal bovine serum (FBS), 1 % L-glutamine (2 mM),1 % penicillin(100 IU/ml)/streptomycin(100 μg/ml) and 1 % amphotericin B(0.25 μg/ml). The cells were incubated at 37 °C in a humidified atmosphere containing 5 % CO2 and were subcultured weekly detaching with trypsin/EDTA solution (0.25 %).
Medium was removed from the 6-well plates contain PC-3 cells with density of 1 million cells per well and cells were washed once with 2 ml of internalization medium (DMEM with 1 % FBS). Furthermore, 1.5 ml internalization medium was added to each well, and the plates were incubated at 37 °C for about 1 h. Afterwards, about 150 kBq (2.5 pmol total peptide mass per well) was added to the medium, and the cells were incubated at 37 °C for various time periods. To determine nonspecific internalization, we incubated cells with the radioligand in the presence of 150 μl, 1 μmol/l Bombesin. The cellular uptake was stopped at appropriate time periods (30 min, 1 h, 2 h and 4 h) by removing medium from the cells and washing twice with 1 ml of ice-cold phosphate-buffered saline (PBS). […] The culture medium, the receptor-bound and internalized fractions were measured radiometrically in a gamma counter.

[3] = Human serum stability; assay type: in vitro ADME
Experimental: To 1 mL of freshly prepared human serum, we added 100 μl (14.8–29.6 MBq) radiolabeled BB derivative and mixture was incubated at 37 °C. 100 μl aliquots was removed and treated with 200 μl of ethanol at different times up to 24 h. Sample was centrifuged at 3,000 rpm for 15 min to precipitate serum proteins. The supernatant was filtered through a 0.20 μm pore filter and analyzed with RP-HPLC Gradient I to determine radiochemical stability.

[4] = Biodistribution in nude mice bearing PC-3 tumors; assay type: in vivo, mouse
Experimental: Animal experiments were performed in compliance with the regulations of our institution and with generally accepted guidelines governing such a work. A suspension of human PC-3 cells (1 × 10^7) in PBS buffer was subcutaneously injected in the right flank of each nude mouse. Seven to 10 days after inoculation, the tumors were inducted and then an activity of 20 MBq (0.35 nmol) of ^99mTc-Bombesin was injected via the femoral vein. In order to determine the non-specific uptake of the radiopeptides, in receptor-positive organs, a group of 3 animals were injected with 100 μg cold peptide in 50 μl saline as a co-injection with the radiopeptides (blocked animals). After 1, 4 and 24 h, the mice in groups of 3 animals were scarified, organs of interest were collected, weighed and radioactivity was measured in a gamma counter. The percentage of the injected dose per gram (% ID/g) was calculated for each tissue.

[5] = Radiochemical stability post labeling at room temperature; assay type: physicochemical
[6] = system: PC-3 tumor cell; experiment: Efflux of radiopeptide from PC-3 tumor cells; assay type: cell-based, human; details: after 4 h
[7] = 1 h after injection, nude mice with PC-3 tumor, 20 MBq (0.35 nmol) via femoral vein, n = 3
[8] = 4 h, unblocked vs. blocked mice, P < 0.05

| Substance | internalization into PC-3 cells [1] [%] | internalization into PC-3 cells ([2]; 0.5 h incubation at 37 °C, mean ± SD) [%] | internalization into PC-3 cells ([2]; 1 h incubation at 37 °C, three independent experiments with triplicates) [%] | radiochemical purity remaining in human serum ([3]; after 24 h in freshly prepared human serum, 37 °C, 100 μl (14.8–29.6 MBq) in 1 mL serum, ethanol precipitation, RP-HPLC Gradient I) [%] | time of good stability in human serum ([3]; human serum at 37 °C, no significant impurities detected by HPLC) | uptake in PC-3 tumor [4, 7] [% ID/g] | uptake in pancreas [4, 7] [% ID/g] | Reduction of uptake in pancreas by blocking with cold peptide [4, 8] [%] | Reduction of uptake in tumor by blocking with cold peptide [4, 8] [%] | time stable post labeling (radiochemical stability) [5] [h] | efflux rate of radiopeptide from PC-3 tumor cell [6] |
| --- | --- | --- | --- | --- | --- | --- | --- | --- | --- | --- | --- |
| [^99mTc-tricine-HYNIC^0-D-Tyr^6-D-Trp^8] BB (6–14) | 10.7 ± 1.2 |  |  |  |  |  |  |  |  |  |  |
| [^99mTc/tricine/HYNIC^0, D-Tyr^5-D-Tyr^6-D-Phe^13] Bombesin (5–14) NH2 [new bombesin derivative labeled with ^99mTc via HYNIC and tricine as a coligand] |  | 2.3 ± 0.9 | 5.3 ± 1.1 | > 90 | at least 24 h | 2.11 ± 0.18 | 1.78 ± 0.09 | 76 | 82 | ≥ 24 | acceptable intercellular trapping |
